Five substances from patent US5159069A, “Sulfated tannins and their salts” (Yamanouchi Pharmaceutical Co., Ltd., priority 1988, dated 1992) can be followed below.

Series [1] deals with HTLV-IIIB-infected MT-4 cells. The series is described as follows: Inhibitory effect of drugs on HIV-induced cell damage (trypan blue dye exclusion). The series is classed as cell-based. On the procedure:
In this experiment, there were used human MT4 cells, a human T4-positive cell line carrying adult T-cell leukemia causative virus, HTLV-1 (Gann Monogr.,1982, Vol. 28, pp. 219 -228) and HTLF-IIIB which is one of the HIV strains.
(§1) HTLV-IIIB-infected MT-4 cells were inoculated on RPMI 1640 culture mediums containing 10% heat-inactivated fetal calf serum, 100 IU/ml of penicillin and 100 μg/ml of streptomycin, to which tannic acid-S had been added in a variety of concentrations, in a cell number of 300,000/ml and were cultured at 37° C. in a carbon dioxide incubator. After the cultivation for three days, one half of the culture medium was withdrawn and the survival rate and the viable count (X 10^4 /ml) of the MT-4 cells in the medium were determined by a trypan blue dye exclusion test. To the remaining cultured cells, an equivalent amount of RPMI 1640 culture medium each containing the same amount of the drugs were added, the cultivation was further continued for additional 3 days and likewise the survival rate and the viable count were determined.

Series [2] deals with HTLV-IIIB-infected MT-4 cells. The series is described as follows: Inhibitory effect on expression of HIV-specific antigen (immunofluorescence). It counts as cell-based. On the procedure: After drying the cells cultured in Experiment 1 on a slide glass, they were fixed with methanol for 3 minutes and treated with human anti-HIV-III positive serum (IF antibody titer×4096) which was diluted 1/1,000 time at 37° C. for 30 minutes. Thereafter, it was washed with phosphate-buffered saline (PBS) for 15 minutes and treated with an anti-human IgG conjugated with fluorescein-isothiocyanate at 37° C. for 30 minutes. It was again washed with PBS and then the number of fluorescent cells, more specifically expressed HIV-specific virus antigen proteins were determined with a fluorescence microscope. "%" is a ratio of the number of fluorescent ray emitting cells to the number of total cells.

The test system of series [3] is MOLT-4 and MOLT-4/HIV HTLV-IIIB cells. The experiment in a line: Inhibitory effect on giant cell formation by mixed cultivation of MOLT-4 and MOLT-4/HIV HTLV-IIIB cells. The series is classed as cell-based, human. The settings on record: 24 hours co-culture, co-culture control 18.5%. The method, then:
This experiment was performed by the recently developed method of Yamamoto et al. (see Yamamoto et al., Virology, 1988, 164, p. 542; and J. Clinical Microbiology, 1988, 26, p. 1229).
MOLT-4 cells which are HTLV-I negative human T cell strain, and MOLT-4/HIVHT LV II IB cells which are persistently HIV-infected cells are separately cultured in a RPMI 1640 culture medium supplemented with 10% fetal calf serum to a cell density of 5×10^5 /ml respectively, these were mixed in a ratio of 1:1 and the drug was added thereto.
The mixed culture medium was cultured at 37° C. for 24 hours in a carbon dioxide incubator and the distribution of cell size was determined by a Cell Multisizer (available from Coulter Electronics, Ltd., Luton, England).
In Table IX, the rate of cell having a size of not less than 20 μm is expressed by "%". If MOLT-4 cells and MOLT-4/HIVHT LV II IB cells are separately cultured, the rates are 4.5 and 3.3% respectively, but it increased up to 18.5% when they are co-cultured. When tannic acid-S was added to the mixed culture medium in a concentration of 5 μg/ml, the rate was reduced to 8.2%.

Series [4] relates to HTLV-IIIB-non-infected MT-4 cells. The series is described as follows: Toxicity: influence on the proliferation of T cells. It counts as cell-based, human. On the procedure:
as §1
As in Experiment 1, there was observed the influence of the compounds (drugs) of the present invention on the proliferation of HTLV-IIIB-non-infected MT-4 cells. The results thus observed are listed on the following Tables XI to XIV. The numerical values in these Tables mean viable count (X 10^4 /ml) and those in parentheses mean survival rates.

Series [5] concerns avian myeloblastosis virus RTase. The series is classed as biochemical. The conditions noted are these: 37° C., 40 minutes. On the procedure: According to the method disclosed in Journal of Biological Chemistry, 1987, 262, p. 2187, the RTase inhibitory effect of the compounds of this invention is determined as follows:
More specifically, the compound of the present invention was added, in various amount, to a reaction solution which comprised 80 mM of Tris buffer solution (pH 8), 6 mM of magnesium chloride, 80 mM of potassium chloride, 10 mM of dithiothreitol, 20 μg/ml of polyadenylic acid, 0.02 μg/ml of oligodeoxy thymidine, 20 μM of tritium-labeled deoxythymidine-triphosphate and avian myeloblastosis virus RTase so that the total volume of the resultant solution was equal to 100 μl. After the reaction solution was incubated at 37° C. for 40 minutes, 100 μl of an ice-cooled 10% trichloroacetic acid solution was added to the solution to stop the reaction.
The reaction solution was filtered through a glass filter (Whatmann GF/C) and washed with a 10% trichloroacetic acid solution and then with ethanol. Thereafter, the glass filter was dried and examined by liquid scintillation counter.

[6] abbreviates: drug 50 μg/ml, culture period 3 days.
The mark [7] stands for this setting: drug 50 μg/ml, culture period 6 days.
Where [8] appears, read: drug 100 μg/ml, culture period 3 days.
Where [9] appears, read: drug 100 μg/ml, culture period 6 days.
[10] abbreviates: drug 200 μg/ml, culture period 3 days.
[11] abbreviates: drug 200 μg/ml, culture period 6 days.
Where [12] appears, read: drug 400 μg/ml, culture period 3 days.
Setting [13] is: drug 400 μg/ml, culture period 6 days.

Consider “sodium salt of ellagic acid sulfate [Ellagic acid-S]”, for which the Viable count worked out at 740000 mL⁻¹ in series [1] (setting [6]); 230000 mL⁻¹ in series [1] (setting [7]); 810000 mL⁻¹ in series [1] (setting [8]); 1.03e+06 mL⁻¹ in series [1] (setting [9]); 830000 mL⁻¹ in series [1] (setting [10]); 860000 mL⁻¹ in series [1] (setting [11]). Besides, the Viable count in series [1] (setting [12]) was 730000 mL⁻¹; in series [1] (setting [13]), 470000 mL⁻¹; in series [4] (setting [6]), 700000 mL⁻¹; in series [4] (setting [7]), 1.37e+06 mL⁻¹; in series [4] (setting [8]) it was 990000 mL⁻¹; in series [4] (setting [9]) it was 1.09e+06 mL⁻¹. Besides, the Viable count in series [4] (setting [10]) was determined as 990000 mL⁻¹; in series [4] (setting [11]), 1.04e+06 mL⁻¹; in series [4] (setting [12]), 810000 mL⁻¹; in series [4] (setting [13]), 700000 mL⁻¹. The survival rate in series [1] (setting [6]) is 82%; in series [1] (setting [7]), 43%; in series [1] (setting [8]), 84%; in series [1] (setting [9]), 78%; in series [1] (setting [10]), 87%; in series [1] (setting [11]) it was 83%. Besides, the survival rate in series [1] (setting [12]) came to 82%; in series [1] (setting [13]), 89%; in series [4] (setting [6]) it was 84; in series [4] (setting [7]), 89; in series [4] (setting [8]), 87; in series [4] (setting [9]), 83. Also, the survival rate in series [4] (setting [10]) is 83; in series [4] (setting [11]) it was 85; in series [4] (setting [12]) it was 84; in series [4] (setting [13]), 82. The “Ratio of fluorescent ray emitting cells to total cells” value (“Ratio” for short) is given as less than 1% in series [2] (setting [6]); 90% in series [2] (setting [7]); less than 1% in series [2] (setting [8]); 6.4% in series [2] (setting [9]); less than 1% in series [2] (setting [10]); less than 1% in series [2] (setting [11]). For the same substance, the “Ratio” value in series [2] (setting [12]) is listed as 0%; in series [2] (setting [13]), less than 1%. For the same substance, the “Rate of Giant Cell (cells of size not less than 20 μm)” value was determined as 15.1% in series [3] (drug 25 μg/ml), 17.0% in series [3] (drug 50 μg/ml), 13.0% in series [3] (drug 100 μg/ml) and 9.5% in series [3] (drug 200 μg/ml).
With “sodium salt of epicatechin sulfate [Epicatechin-S]”, the Viable count in series [1] (setting [6]) is 940000 mL⁻¹; in series [1] (setting [7]), 450000 mL⁻¹; in series [1] (setting [8]), 990000 mL⁻¹; in series [1] (setting [9]), 1.1e+06 mL⁻¹; in series [1] (setting [10]), 890000 mL⁻¹; in series [1] (setting [11]), 1.22e+06 mL⁻¹. For the same substance, the Viable count in series [1] (setting [12]) stood at 910000 mL⁻¹; in series [1] (setting [13]), 1.33e+06 mL⁻¹; in series [4] (setting [6]) it was 1.14e+06 mL⁻¹; in series [4] (setting [7]), 1.38e+06 mL⁻¹; in series [4] (setting [8]) it was 1.1e+06 mL⁻¹; in series [4] (setting [9]), 1.47e+06 mL⁻¹. In addition, the Viable count in series [4] (setting [10]) was found to be 1.11e+06 mL⁻¹; in series [4] (setting [11]), 1.33e+06 mL⁻¹; in series [4] (setting [12]), 1.18e+06 mL⁻¹; in series [4] (setting [13]), 1.37e+06 mL⁻¹. The survival rate came to 95% in series [1] (setting [6]); 63% in series [1] (setting [7]); 87% in series [1] (setting [8]); 92% in series [1] (setting [9]); 86% in series [1] (setting [10]); 91% in series [1] (setting [11]). In addition, the survival rate came to 85% in series [1] (setting [12]); 91% in series [1] (setting [13]); 91 in series [4] (setting [6]); 85 in series [4] (setting [7]); 86 in series [4] (setting [8]); 93 in series [4] (setting [9]). The survival rate in series [4] (setting [10]) is on record as 83; in series [4] (setting [11]), 92; in series [4] (setting [12]), 86; in series [4] (setting [13]) it was 92. Further, the “Ratio” value is on record as less than 1% in series [2] (setting [6]); 90% in series [2] (setting [7]); less than 1% in series [2] (setting [8]); less than 1% in series [2] (setting [9]); less than 1% in series [2] (setting [10]); less than 1% in series [2] (setting [11]). For the same substance, the “Ratio” value in series [2] (setting [12]) and in series [2] (setting [13]) was less than 1% in each case. The “Rate of Giant Cell (cells of size not less than 20 μm)” value in series [3] (drug 25 μg/ml) is listed as 14.2%; in series [3] (drug 50 μg/ml), 14.0%; in series [3] (drug 100 μg/ml), 15.1%; in series [3] (drug 200 μg/ml) it was 13.9%.
Consider “sodium salt of sulfated 3,4,5- trigalloylquinic acid [Example 12]”, for which, in series [5], the “RTase Inhibitory Effect (IC50)” value stood at 9.2 µg/mL.
Take “sodium salt of sulfuric acid ester of 1,2,3,4,6-penta-O-galloyl-β-D-glucose [Example 7]”: the “RTase Inhibitory Effect (IC50)” value in series [5] is 0.45 µg/mL.
Consider “sodium salt of sulfuric acid ester of 1,2,3,4,6-penta-O-galloyl-β-D-glucose [Example 9]”, for which, in series [5], the “RTase Inhibitory Effect (IC50)” value is less than 0.096 µg/mL.
